Results taken from patent US10786514B2, “Dosage regiment of ferric maltol” (Shield TX (UK) Limited, priority 2015, dated 2020).

Assays:
Assay type in all cases: in vivo, human
[1] = Phase I pharmacokinetic study: tolerability; conditions: doses above 30 mg and up to 90 mg twice daily, 8 days, iron-deficient subjects with active inflammatory disease
Description: (§1) These studies were primarily pharmacokinetic and conducted in subjects with iron deficiency having active inflammatory disease or acute chronic inflammation. An open-label, randomised, single and repeat dose parallel group Phase I pharmacokinetic study was carried out to evaluate the effect of single and repeated twice daily (bid) oral doses of ST10 at 30 mg, 60 mg and 90 mg for 8 days.
(§2) 24 subjects with iron deficiency (with or without anaemia) were randomly allocated to one of the three ST10 dose groups as follows:
(§3) Group 1: 9 subjects received ST10, 30 mg twice daily for 7 days (days 1-7) plus a final 30 mg dose on the morning of day 8.
(§4) Group 2: 8 subjects received ST10, 60 mg twice daily for 7 days (days 1-7) plus a final 60 mg dose on the morning of day 8.
(§5) Group 3: 7 subjects received ST10, 90 mg twice daily for 7 days (days 1-7) plus a final 90 mg dose on the morning of day 8.

[2] = Phase I pharmacokinetic study: total iron binding capacity (TIBC); conditions: over time and across 30, 60, 90 mg dose groups
Description: as §1
(§6) On day 1, following fasting for at least 1.5-2 hours beforehand, ST10 was administered (30 mg, 60 mg or 90 mg) and blood samples collected over the following 6 h for analysis. 60 mg was administered as two 30 mg capsules and 90 mg was administered as three 30 mg capsules, both as a single dose. Subjects continued dosing with ST10 on the evening of day 1 then every morning and evening for the next 6 days (Days 2 to 7).
On day 8 following fasting for at least 1.5-2 hours beforehand the last dosing of ST10 was administered (30 mg, 60 mg or 90 mg) and blood samples collected over the following 6 h for analysis. […]
Serum concentrations of transferrin, total iron binding capacity (TIBC), ferritin and soluble transferrin receptor; and reticulocyte haemoglobin concentrations (CHr) in whole blood were measured by central laboratories using appropriately validated methods. […]

[3] = Phase I pharmacokinetic study: serum total iron concentration; conditions: for maximum mean serum total iron concentration: Day 1, iron-deficient subjects
Description: as §1, §2, §3, §4, §5, §6
On day 8 following fasting for at least 1.5-2 hours beforehand the last dosing of ST10 was administered (30 mg, 60 mg or 90 mg) and blood samples collected over the following 6 h for analysis.
On Days 1 and 8 blood samples were collected predose (0 h=time of ST10 dose) and at 5 minutes(for NTBI only), 15 minutes, 30 minutes, 45 minutes, and 1, 1.5, 2, 3, 4 and 6 h postdose.
These studies used transferrin saturation and total serum iron as measurements of iron uptake from the gut into the transport mechanisms. In addition serum ferritin was used as a measure of iron storage status at the end of the dosing period; all of these measurements are standard and well recognised.
One subject in the 60 mg dose group prematurely withdrew from the study on Day 7, so full profiles of all serum iron parameters were available in the 30 mg dose group for 9 subjects (days 1 and 8), in the 60 mg dose group 8 subjects on day 1 and for 7 subjects on day 8, and in the 90 mg dose group for 7 subjects (days 1 and 8).

ferric trimaltol [ST10]
tolerability [1]: well tolerated
total iron binding capacity, mean concentration [2]: approximately 70 μmol/L
maximum mean serum total iron concentration ([3]; 30 mg oral dose group): 32.3 µmol/L
maximum mean serum total iron concentration ([3]; 60 mg oral dose group): 49.1 µmol/L
maximum mean serum total iron concentration ([3]; 90 mg oral dose group): 48.7 µmol/L
serum total iron concentrations on Day 8 versus Day 1 ([3]; Day 8, 30, 60, 90 mg dose groups): Comparable
